≈ marks a conversion by molar mass, not a printed value.
Legend:
S. aureus RN450 = test: Antibacterial activity MIC, Gram+ (Table 9); assay type: cell-based; details: Staphylococcus aureus, CAMHB, 35° C., approximately 18 hr
Procedure, shortened: (§1)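 MIC taken as lowest compound level preventing growth after about 18 h at 35 °C (ambient air), read by microplate reader with visual check. Fresh log-phase cultures were inoculated to about 5×10^5 CFU/ml final into CAMHB dilutions spanning 200 to 0.098 μg/ml, starting from a DMSO stock.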

[1] = test system: Protein synthesis (E. coli S30 Extract System); test: Protein synthesis inhibition, in vitro transcription/translation assay (E. coli S30 Extract System for Circular DNA); assay type: biochemical
RANKL = test: Paw extract biomarker ELISA, CIA mice: RANKL; assay type: in vivo, mouse; details: paw extracts from CIA mice
Experimental: (§2) • 1. Male DBA/1 mice were immunized i.d. with an emulsion of 200 μg bovine type II collagen in Complete Freund's Adjuvant. • 2. On day 21, mice received i.d. boost of 100 μg collagen in Incomplete Freund's Adjuvant • 3. Compounds were administered i.p. daily for 7 days starting from disease onset (day 3-4 after boost). • 4. Foot swelling was measured by an engineering micrometer and disease severity was scored accordingly (1, erythema and mild swelling confined to the tarsal or ankle joint; 2, erythema and mild swelling extending from the ankle to the mid-foot; 3, erythema and moderate swelling extending from the ankle to the metatarsal joints; 4, erythema and severe swelling encompassing the ankle, foot, and digits). • 5. Change (Δ) of paw thickness=sum of paw thickness from 4 paws of a mouse (experimental)−sum of baseline paw thickness from 4 paws of the same mouse. • 6. % inhibition=cumulative A paw thickness (disease group−compound-treated group)/cumulative A paw thickness (disease group)
(§3) • 1. Paws were collected from mice after 5-7 days of dosing and dissected free of skin. • 2. The paws were then homogenized in ice-cold PBS (2 ml/4 paws/mouse) containing 1× protease inhibitor using a Polytron homogenizer. • 3. Debris and particles were removed from the homogenized samples by centrifugation. • 4. Liquid layers were collected for MMP-9, IL-1, IL-6, RANKL, MCP-1, and TNFα analysis using ELISA kits from R & D System.

IL-6 = test: Paw extract biomarker ELISA, CIA mice: IL-6; assay type: in vivo, mouse; details: paw extracts from CIA mice
Experimental: as §2, §3

[2] = test system: collagen-induced arthritis (CIA) in male DBA/1 mice; test: Murine collagen-induced arthritis (CIA) model, Example 2; assay type: in vivo, mouse; details: for % Inhibition (Change in Paw Thickness) AVG / % Inhibition (Clinical Score) AVG / Change in Paw Thickness (mm) Mean: 25 mg/kg/day i.p.; for % Inhibition (Change in Paw Thickness) AVG / % Inhibition (Clinical Score) AVG: dosed after disease onset; for EC50 in inflammation suppression in CIA mice: i.p. daily; for Effects on reduction of paw swelling and clinical score compared to either minocycline or methotrexate / joint inflammation when administered after disease onset: murine CIA model
Experimental: Four non-antibacterial analogues of minocycline (J, W, AF and AT) were synthesized and tested in the murine model of the disease, collagen-induced arthritis (CIA) (See supra). Male DBA/1 mice were immunized intradermally with 200 μg of bovine type II collagen and boosted with collagen three weeks later. Minocycline and four non-antibacterial minocycline derivatives were administered i.p. beginning after disease onset. Paw thickness was measured and animals were scored daily.
as §2

[3] = Pharmacokinetics in rats after i.v. and oral dosing; assay type: in vivo; details: rat; for bioavailability: male, CD/IGS, after oral dosing of 5 mg/kg, read-out: PK Parameters (Rat) % F, fraction of absorption; for bioavailability / half-life: plasma; for half-life: male CD/IGS rats, 1 mg/kg i.v. or 5 mg/kg oral, read-out: PK Parameters (Rat) T1/2 (converted)
Experimental: Pre-cannulated (jugular vein and carotid artery for i.v. group and carotid artery for oral group) male CD/IGS rats (approximately 250 g) were used. Rats were fasted overnight prior to dosing with access to food restored 2 hours after dosing. Rats were administered with approximately 0.25 mL compound (1 mg/kg dose) for i.v. route (via jugular vein over 20 seconds) or 0.5 mL solution (5 mg/kg dose) orally. Blood (300 μL) was collected in tubes with EDTA anticoagulant at various time points, centrifuged and plasma collected and stored frozen at −20° C. Animals were euthanized by CO2 following the final blood collection. Plasma was extracted (0.1% trifluoroacetic acid in 67% acetonitrile/33% water) and levels of compound quantified by HPLC/MS against a standard curve.

[4] = test system: collagen-induced arthritis (CIA) in male DBA/1 mice; test: CIA model, Example 3 (cumulative scores vs untreated controls); assay type: in vivo; details: Mus musculus
Procedure, shortened: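 Immunised intradermally with bovine type II collagen in CFA and boosted at day 21 in IFA. After onset, tetracycline derivatives given daily i.p. or orally for 8 to 15 days. Daily visual inflammation scores (0–4 scale) and micrometer paw thickness summed into cumulative scores.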

MCP-1 = test: Paw extract biomarker ELISA, CIA mice: MCP-1; assay type: in vivo, mouse; details: paw extracts from CIA mice
Experimental: as §2, §3

MMP-9 = test: Paw extract biomarker ELISA, CIA mice: MMP-9; assay type: in vivo, mouse; details: paw extracts from CIA mice
Experimental: as §2, §3

IL-1 = test: Paw extract biomarker ELISA, CIA mice: IL-1; assay type: in vivo, mouse; details: paw extracts from CIA mice
Experimental: as §2, §3

[5] = test system: cytokines (IL-1, IL-6, RANKL and MCP-1) and a matrix metalloproteinase (MMP-9); test: Paw extract biomarker ELISA, CIA mice: whole panel (statements in words); assay type: in vivo, mouse
Experimental: as §2, §3

[6] = test system: E. coli ATCC25922 (tetracycline sensitive); test: E. coli MIC, broth micro-dilution per CLSI guidelines (Table 3); assay type: cell-based; details: for MIC: Escherichia coli, E. coli ATCC25922, cation-adjusted Mueller Hinton broth
E. coli 25922 = test: Antibacterial activity MIC, Gram- (Table 9); assay type: cell-based; details: Escherichia coli, CAMHB, 35° C., approximately 18 hr
Procedure, shortened: as §1

Row | Structure (SMILES) | MIC (S. aureus RN450) | IC50 [1] | Percent level of Biomarker Tissue [c] Compared to Untreated Control, RANKL AVG (RANKL) | Percent level of Biomarker Tissue [c] Compared to Untreated Control, IL-6 AVG (IL-6) | % Inhibition (Change in Paw Thickness) AVG [2] | % Inhibition (Clinical Score) AVG [2] | EC50 in inflammation suppression in CIA mice [2] | Change in Paw Thickness (mm) Mean ([2]; day 1 of dosing) | Change in Paw Thickness (mm) Mean ([2]; day 2 of dosing) | Change in Paw Thickness (mm) Mean ([2]; day 3 of dosing) | Change in Paw Thickness (mm) Mean ([2]; day 4 of dosing) | Change in Paw Thickness (mm) Mean ([2]; day 5 of dosing) | Change in Paw Thickness (mm) Mean ([2]; day 6 of dosing) | Change in Paw Thickness (mm) Mean ([2]; day 7 of dosing) | Change in Paw Thickness (mm) Mean ([2]; day 8 of dosing) | Effects on reduction of paw swelling and clinical score compared to either minocycline or methotrexate [2] | joint inflammation when administered after disease onset [2] | bioavailability [3] | bio-available after oral dosing in rats [3] | half-life [3] | further results
1 | CCc1cc(N(C)C)c2c(c1O)C(=O)C1=C(O)[C@]3(O)C(=O)C(C(N)=O)=C(O)C[C@@H]3C[C@@H]1C2 [Compound AF] | 1 µg/mL (≈ 2.26 µM) | > 100 µM | 38% | 35% | 62% | 42% | 12 mg/kg/day i.p. | 0.55 mm | 0.39 mm | 0.61 mm | 0.49 mm | 0.46 mm | 0.38 mm | 0.42 mm | 0.54 mm | greater | inhibited joint inflammation | 77% | bio-available | 3.1 h | inhibition in vivo at 6 mg/kg [4]: 28%; inhibition in vivo at 12 mg/kg [4]: 49%; inhibition in vivo at 35 mg/kg ([4]; Dose 35 mg/kg): 62%; Percent level of Biomarker Tissue [c] Compared to Untreated Control, MCP-1 AVG (MCP-1): 43%; Percent level of Biomarker Tissue [c] Compared to Untreated Control, MMP-9 AVG (MMP-9): 113%; Percent level of Biomarker Tissue [c] Compared to Untreated Control, IL-1 AVG (IL-1): 55%; inhibition of inflammatory/osteoclastic cytokines (MMP-9, IL-1, IL-6, MCP-1, RANKL) in vivo [5]: better than minocycline; anti-bacterial activity compared to minocycline [6]: no anti-bacterial activity; MIC [6]: > 64 µg/mL; MIC (E. coli 25922): > 64 µg/mL
2 | CC(C)c1cc(N(C)C)c2c(c1O)C(=O)C1=C(O)[C@]3(O)C(=O)C(C(N)=O)=C(O)[C@@H](N(C)C)[C@@H]3C[C@@H]1C2 [Compound J] | 2 µg/mL (≈ 4 µM) | > 100 µM | 32% | 68% | 71% | 45% | 14 mg/kg/day i.p. | 0.47 mm | 0.39 mm | 0.33 mm | 0.48 mm | 0.36 mm | 0.37 mm | 0.50 mm | 0.65 mm | greater | inhibited joint inflammation | 65% | bio-available | 2.5 h | inhibition in vivo at 12 mg/kg [4]: 34%; inhibition in vivo at 25 mg/kg [4]: 71%; Percent level of Biomarker Tissue [c] Compared to Untreated Control, MCP-1 AVG (MCP-1): 60%; Percent level of Biomarker Tissue [c] Compared to Untreated Control, MMP-9 AVG (MMP-9): 68%; Percent level of Biomarker Tissue [c] Compared to Untreated Control, IL-1 AVG (IL-1): 52%; inhibition of inflammatory/osteoclastic cytokines (MMP-9, IL-1, IL-6, MCP-1, RANKL) in vivo [5]: better than minocycline; anti-bacterial activity compared to minocycline [6]: no anti-bacterial activity; MIC [6]: > 64 µg/mL; MIC (E. coli 25922): > 64 µg/mL
3 | COC(=O)c1cc(N(C)C)c2c(c1O)C(=O)C1=C(O)[C@]3(O)C(=O)C(C(N)=O)=C(O)C[C@@H]3C[C@@H]1C2 [Compound W] | 4 µg/mL (≈ 8.47 µM) | > 100 µM | 27% | 28% | 60% | 40% | 20 mg/kg/day i.p. | 0.71 mm | 0.41 mm | 0.46 mm | 0.56 mm | 0.51 mm | 0.45 mm | 0.35 mm | 0.60 mm | greater | inhibited joint inflammation | 52% | bio-available | 3 h | inhibition in vivo at 6 mg/kg [4]: 25%; inhibition in vivo at 12 mg/kg [4]: 32%; inhibition in vivo at 25 mg/kg [4]: 60%; Percent level of Biomarker Tissue [c] Compared to Untreated Control, MCP-1 AVG (MCP-1): 28%; Percent level of Biomarker Tissue [c] Compared to Untreated Control, MMP-9 AVG (MMP-9): 72%; Percent level of Biomarker Tissue [c] Compared to Untreated Control, IL-1 AVG (IL-1): 32%; inhibition of inflammatory/osteoclastic cytokines (MMP-9, IL-1, IL-6, MCP-1, RANKL) in vivo [5]: better than minocycline; anti-bacterial activity compared to minocycline [6]: no anti-bacterial activity; MIC [6]: > 64 µg/mL; MIC (E. coli 25922): > 64 µg/mL
